Converted amounts (≈) assume the structure as drawn. The source made the active and inactive calls. The rule behind the calls is not given here. Numbered stars: 1 amine (or outer) side, 2 acyl side, 3 side chain; on linkers, the order of the positions; unused ones are H or OH. Square brackets hold non-standard residues; d marks the D form. Peptide text beside a SMILES is read from it. X2 = CC(C)=CCc1cc([C@H](O)[C@H](N[*:1])C(=O)[*:2])ccc1O; X1 = O=C([C@@H](N[*:1])[C@@H](O)c1ccc(O)cc1)[*:2]
Assays:
A2780 = experiment: Antiproliferative activity against human A2780 cells at 40 uM by SRB assay; format: functional, cell-based
Staphylococcus aureus [1] = experiment: Antibacterial activity against Staphylococcus aureus ATCC 43300 in presence of disulfiram; format: functional
Staphylococcus aureus [2] = experiment: Antibacterial activity against Staphylococcus aureus ATCC 43300; format: functional
[3] = Inhibition of TNFalpha-induced NFkappaB activation in HEK293 cells after 6 hrs by luciferase reporter gene assay; format: cell-based; conditions: Homo sapiens, HEK293, 6 h
Staphylococcus aureus [4] = experiment: Antibacterial activity against Staphylococcus aureus ATCC 43300 at 80 ug/ml; format: functional, organism-based; conditions: dose 80.0 µg/ml

In the case of Cn1c(=O)c2nc(C(=O)N[C@@H](CC[S+](C)[O-])C(=O)Nc3ccccc3C(=O)O)cnc2n(C)c1=O (some centres undefined), the Activity (A2780) is reported as “inactive”.

In the case of COC1=C(c2ccc(O)cc2)[C@@H](Cc2ccc(O)c(CC=C(C)C)c2)OC1=O, the Activity (A2780) is reported as “inactive”.

With Cn1c(=O)c2nc(C(=O)N[C@@H](CO)C(=O)Nc3ccccc3C(=O)O)cnc2n(C)c1=O the Activity (A2780) was “inactive”.

For O=C(N[C@H](CO)[C@H](O)c1ccc([N+](=O)[O-])cc1)C(Cl)Cl [CHLORAMPHENICOL], the MIC (Staphylococcus aureus [1]) was 2.5 µg/mL and the MIC (Staphylococcus aureus [2]) was 6.25 µg/mL (≈ 19.3 µM).

In the case of Cn1c(=O)c2nc(C(=O)N[C@@H](CCC(N)=O)C(=O)Nc3ccccc3C(=O)O)cnc2n(C)c1=O, the Activity (A2780) is reported as “inactive”.

For CC(C)[C@@H]1NC(=O)CNC(=O)[C@@H]2CCCN2C(=O)[C@H](Cc2c[nH]c3ccccc23)NC(=O)CNC(=O)[C@H]([C@@H](O)c2ccc(O)cc2)NC(=O)CNC1=O (cyclo(GVG[X1]GWP)), the MIC (Staphylococcus aureus [1]) was 10 µg/mL, the IC50 [3] was 10.3 µM and the Activity (Staphylococcus aureus [4]) was “inactive”. The Activity (A2780) was “inactive”.

In the case of COC(=O)c1ccccc1NC(=O)[C@H](CC[S+](C)[O-])NC(=O)c1cnc2c(n1)c(=O)n(C)c(=O)n2C (some centres undefined), the Activity (A2780) is reported as “inactive”.

With CC1=C[C@H](/C=C(\C)C[C@@H](O)[C@@H](O)/C=C/C(=O)O)[C@]2(O)C(=O)N[C@@H](CC(C)C)[C@@H]2[C@@H]1C the Activity (A2780) was “inactive”.

In the case of C[C@H](NC(=O)c1cnc2c(n1)c(=O)n(C)c(=O)n2C)C(=O)Nc1ccccc1C(=O)O, the Activity (A2780) is reported as “inactive”.

For CC1=C[C@@H]2/C=C(\C)CCC(O)C(O)C(O)CC(=O)[C@]23C(=O)N[C@@H](CC(C)C)[C@@H]3[C@@H]1C (some centres undefined), the IC50 [3] was 3.1 µM and the Activity (A2780) was “inactive”.

For [C-]#[N+]c1ccccc1NC(=O)[C@H](C)NC(=O)c1cnc2c(n1)c(=O)n(C)c(=O)n2C, the Activity (A2780) was “inactive”.

In the case of COC1=C(c2ccc(O)cc2)[C@@H](Cc2ccc(O)cc2)OC1=O, the MIC (Staphylococcus aureus [1]) is reported as 10 µg/mL, the Activity (Staphylococcus aureus [4]) is reported as “inactive” and the Activity (A2780) is reported as “inactive”.

For CC(C)=CCc1cc([C@H](O)[C@@H]2NC(=O)CNC(=O)[C@H](C(C)C)NC(=O)CNC(=O)[C@@H]3CCCN3C(=O)[C@H](Cc3c[nH]c4ccccc34)NC(=O)CNC2=O)ccc1O (cyclo(GVG[X2]GWP)), the MIC (Staphylococcus aureus [1]) was 10 µg/mL, the Activity (Staphylococcus aureus [4]) was “inactive” and the Activity (A2780) was “inactive”.

For COC(=O)[C@]1(Cc2ccc(O)c(CC=C(C)C)c2)OC(=O)C(OC)=C1c1ccc(O)cc1, the Activity (A2780) was “inactive”.

In the case of C[C@H](O)C(=O)[C@@H](C)C/C=C/[C@H]1[C@@H]2O[C@]2(C)[C@@H](C)[C@H]2[C@H](Cc3ccccc3)NC(=O)[C@]21O, the Activity (A2780) is reported as “inactive”.
